Laboratory results taken from a melting point compilation (Tetko et al.; mined from patent text by program, amines drawn as free bases though some values may be those of a salt).
Starred links: 1 amine or outer side, 2 acyl side, 3 side chain; linkers in the order of their positions; H or OH if unused. Residues, ends and D or L forms follow the SMILES beside them. *: point of attachment. Glutaryl = O=C(CCCC(=O)[*:2])[*:1]; NHPr = CCCN*

SMILES	melting point [°C]
CCc1c(CCN2CCC(c3noc4cc(F)ccc34)CC2)sc2c1NC(=O)CCC2	115 to 117
CS(=O)(=O)c1ccc(-c2cnn(-c3cccc(Cl)c3)c(=O)c2Cc2ccccc2)cc1	174 to 177
CC(SC1COC(c2ccc(C(=O)Nc3ccc(OC(F)(F)F)cc3)cc2)OC1)C(O)(Cn1cncn1)c1ccc(F)cc1F (centres undefined)	180
COc1cc(C#N)c(C(C)=O)cc1[N+](=O)[O-]	224 to 226
OCc1cn(-c2ccc(Cl)c(C(F)(F)F)c2)cn1	148 to 153
COC(=O)C=Cc1cncc2ccccc12	79 to 80
CNc1ncn(-c2c(C)cccc2Br)c(=O)n1	238 to 240
CC1(C)COc2ccc(C#N)cc21	70 to 71
CC(C)n1c(C=O)c(-c2ccc(F)cc2)c(-c2ccccc2)c1C(=O)NCc1ccc(F)cc1	171 to 172
COC(=O)c1cccc2nc(N3CCOCC3)n(Cc3ccc(-c4ccccc4)c(-c4nnn[nH]4)c3)c12	163 to 167
COc1c(Br)ccc2oc(CNc3ccc(-c4ccc(S(=O)(=O)NC(C(=O)O)C(C)C)cc4)cc3)c(C)c12 (centres undefined)	194 to 198
CS(=O)(=O)c1nccc(-c2ccc(Oc3ccc(F)cc3)cc2)n1	146 to 147
CC(=O)Oc1cc(O)c(C=O)c(OC(C)=O)c1	103 to 105
CC(c1oc2ccccc2c(=O)c1-c1cccc(F)c1)n1nc(-c2cc3ccccc3s2)c2c(N)ncnc21 (centres undefined)	242 to 245
CNc1nc(C)c(-c2nc3ccccc3c(=O)n2-c2ccccc2)s1	209 to 210
CCOC(=O)N(CC)c1c(OC)cc(Cc2cnc(N)nc2N)cc1OC	165 to 167
COc1ccccc1C1CC(=O)C(C(C)=O)C(=O)C1 (centres undefined)	65 to 66

SMILES	melting point [°C]
CP1(=O)OCc2ccccc21 (centres undefined)	70 to 72
Cc1cn(-c2cc(NC(=O)c3cccc4cc(Oc5ccnc(N)c5)ccc34)cc(C(F)(F)F)c2)cn1	236 to 239
COC(=O)C1C(=O)CCN(N2CCCCC2)C1=O (centres undefined)	157 to 159
Cn1ncnc1COc1nn2c(-c3cccnc3)nncc2c1-c1ccccc1F	164 to 166
O=[N+]([O-])c1ccc(Cl)cc1NN1CCOCC1	155
Cn1cc(C(=O)NCc2ccc(Cl)cc2)c(=O)c2cccc(C#CCO)c21	228 to 230
CCCCc1oc2ccccc2c1C(=O)c1ccc2c(Br)c(OCC(=O)O)ccc2c1	163 to 165
CC(C)(CO)c1cc(NC(=O)C(C)(C)S(=O)(=O)CCC(F)(F)F)on1	162 to 163
O=C(c1ccccc1)c1cc(Cl)cc2c1S(=O)CC2C(=O)O (centres undefined)	172 to 174
CCOC(=O)c1cn2c(Cl)cccc2n1	143 to 145
O=C(Nc1ccc(S(=O)(=O)Cl)cc1)c1ccccc1	176 to 178
CC(C)C[C@H](NC(=O)OC(C)(C)C)C(=O)N[C@@H](C(C)C)[C@@H](O)c1c(-c2ccccc2)c1=O	158 to 161
CC(=O)N1CCC2(CC1)Cn1cc([N+](=O)[O-])nc1O2	232 to 234
CCOCc1nc2c(N)nc(C)c(C)c2n1Cc1cc(-c2cccnc2)no1	189 to 191
O=c1[nH]nc2cc(C(c3c(F)ccc(F)c3F)S(=O)(=O)CCC(F)(F)F)c(Cl)cn12 (centres undefined)	209 to 211
Clc1nc(C2CC2)nc(N2CCOCC2)n1	99 to 100

Now from value to compound:

melting point [°C]	SMILES
293 to 296	O=C1N=C(NN2CCCC2)SC1=Cc1cccc(-c2cc(F)c(O)c(C34CC5CC(CC(C5)C3)C4)c2)c1
191 to 194	CCS(=O)(=O)CCC(=O)NNC(=O)N1Cc2ccccc2Oc2ccc(O)cc21
249	COc1cc(C(=O)c2ncc3ccc(NS(C)(=O)=O)cn23)ccc1[N+](=O)[O-]
110 to 112	O=C(Nc1cc(-c2nc(Cc3ccccc3)c[nH]2)ccn1)c1ccccc1
> 260	NCc1ccc(-c2ccccc2-c2nnn[nH]2)cc1
77 to 78	CCCCCC(=O)NC(C(C)=O)c1ccccc1 (centres undefined)
62 to 64	CNC(=O)[C@@H]1C[C@@H](OCc2ccccc2)CN1S(=O)(=O)c1ccc(Cl)c(CBr)c1Cl
211 to 213	O=C(Nc1ccc(Oc2ccc(N(CC(=O)N3CCN(Cc4ccc5c(c4)OCO5)CC3)C(=O)C(F)(F)F)cc2)nc1)c1ccc(Cl)c(Cl)c1
237 to 240	CN(C(=O)c1cc2c(cn1)[nH]c1ccccc12)c1ccccc1
47 to 48	CSc1cc(C=O)nn1C
112 to 114	COc1ccc(-n2cccc2-c2ccc(S(N)(=O)=O)cc2)cc1
296 to 299	CCCc1n[nH]c2ccc(C(=O)O)cc12
135 to 138	CCCc1nc(-n2cccc2)c(C(=O)OC)[nH]1
163 to 165	O=C(NNC(=S)Nc1cccc(Br)c1)c1cccc([N+](=O)[O-])c1
76 to 77	Cc1c(SCCCSCc2ccc(Cl)s2)ccnc1CSc1ccncc1
> 250	NCC1Cc2cc(-c3cccc(Cl)c3)cc(F)c2O1 (centres undefined)
250 to 251	Cc1ncnc(O)c1Cl
131 to 134	O=[N+]([O-])c1ccc2c(ccn2Cc2cccnc2)c1

melting point [°C]	SMILES
> 300	CC(=O)Nc1nc2c(s1)-c1nc(N3CCOCC3)ncc1C2
164 to 170	CCN1CCc2ccc(Nc3ncc(C#N)c(Nc4ccccc4C(=O)NC)n3)cc2CC1
115	COc1ccccc1N1CCN(CCc2ccc(OC(=O)C(C)(C)C)c3ncccc23)CC1
> 230	Cc1c(C)c2c(c(C)c1O)CCC(C)(CNCCc1ccc(N=C(N)c3cccs3)cc1)O2 (centres undefined)
264 to 265	COC(=O)N1CCN(c2n[nH]c(-c3ccc(Cl)cc3)c2-c2ccncc2)CC1
131 to 134	CCCNC(=O)C1CCCN1C(=O)C(C)NC(=O)C(C)NC(=O)CCCC(=O)O (stereo not drawn) (Glutaryl-Ala-Ala-Pro-NHPr; configuration not given here)
114 to 115	CCc1cc(C(C)=O)ccc1N=C1SCC2(CCCC2)N1C1CCCC1
125 to 127	Cc1noc(NS(=O)(=O)c2cccs2)c1Br
231 to 233	CC1CC(n2c(NC3CC3)nc3cc(Cl)c(Cl)cc32)C(O)C1O (centres undefined)
231 to 232	O=C(Nc1cccnc1)N1CCN(c2nccc(-c3cc(F)cc(F)c3)n2)CC1
111	CC(C)(C)[N+]([O-])=Cc1ccccc1OCc1ccccc1
192 to 194	Cc1c(Br)ccc(S(C)(=O)=O)c1C=NO
149 to 150	O=C1c2ccccc2C(=O)C1(c1ccccc1)N1CCC(c2noc3cc(F)ccc23)CC1
174 to 175	C=CCn1c(=O)c(C(=O)OCC)c(O)c2cnc(-c3ccccc3)nc21
186 to 187	CCOc1ccc(C2=NN(c3ccc(C(=O)N4CCS(=O)(=O)CC4)cc3)C(=O)[C@H]3CC=CC[C@@H]23)cc1OCC (relative stereo)
310 to 320	Cc1cscc1NC(=S)Nc1cc(Cl)c(Cl)cc1N
82 to 84	CCOC(=O)CC(=O)c1ccc(N)cc1
76.5 to 78.5	COC(=O)COC(=O)COc1ccc(N)cc1
